The record followed here is patent US8580813B2, “Cyclic azaindole-3-carboxamides, their preparation and their use as pharmaceuticals” (Sanofi, priority 2008, dated 2013).

By IC50 is commonly meant the concentration that inhibits the measured activity by half.

For the assay, the target named is T1, Recombinant human renin (Homo sapiens, UniProt P00797).
T1 construct: purchased Cayman 10006217
T1 sequence (P00797 67-406): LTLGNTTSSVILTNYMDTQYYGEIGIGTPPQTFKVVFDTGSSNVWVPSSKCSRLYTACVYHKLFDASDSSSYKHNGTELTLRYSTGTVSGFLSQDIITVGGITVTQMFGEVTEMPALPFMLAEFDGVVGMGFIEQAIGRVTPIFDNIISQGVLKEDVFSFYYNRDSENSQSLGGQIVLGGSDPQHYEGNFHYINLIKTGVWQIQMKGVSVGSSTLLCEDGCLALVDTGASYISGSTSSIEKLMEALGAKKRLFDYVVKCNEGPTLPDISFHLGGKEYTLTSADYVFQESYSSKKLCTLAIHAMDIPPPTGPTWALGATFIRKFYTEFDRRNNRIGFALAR
Nature of the assay: Inhibition of renin (fluorogenic peptide substrate). It counts as biochemical. Conditions: recombinant human renin 5 nM, substrate 10 μM, 2 h at room temperature, Tris buffer pH 8; compounds tested as the obtained salt. As for the experimental part: M-2050; […] The increase in fluorescence, which is due to fluorescence resonance energy transfer, was recorded at an excitation wavelength of 330 nm and an emission wavelength of 485 nm in a microplate spectrofluorometer. Inhibitory concentrations IC50 were calculated from the percentage of inhibition of renin activity as a function of the concentration of the test compound. […] Representative IC50 values, which were determined with the compounds in the form of the obtained salt indicated in the examples above, are listed in table 8.
On to `Cc1ccccc1Oc1c(C(=O)N2CCNCC2)c2ncccc2n1-c1ccccc1` [Example 1, [1-Phenyl-2-(2-methyl-phenoxy)-1H-pyrrolo[3,2-b]pyridin-3-yl]-piperazin-1-yl-methanone], for which the IC50 amounted to 250 nM.

For the compound `Cc1ccccc1Cc1c(C(=O)N2CCNCC2)c2ncccc2n1-c1ccccc1` [Example 3, [2-(2-Methyl-benzyl)-1-phenyl-1H-pyrrolo[3,2-b]pyridin-3-yl]-piperazin-1-yl-methanone], the IC50 was 120 nM. On to `O=C(c1c(Cc2c(F)cccc2Cl)n(-c2ccccc2)c2ccncc12)N1CCNCC1` [Example 13, [2-(2-Chloro-6-fluoro-benzyl)-1-phenyl-1H-pyrrolo[3,2-c]pyridin-3-yl]-piperazin-1-yl-methanone], for which the IC50 worked out at 100 nM. `COc1cc2c(C(=O)N3CCNCC3)c(Cc3cccc(F)c3C)n(-c3ccccc3)c2cn1` [Example 22, [2-(3-Fluoro-2-methyl-benzyl)-5-methoxy-1-phenyl-1H-pyrrolo[2,3-c]pyridin-3-yl]-piperazin-1-yl-methanone]: the IC50 came out at 850 nM. The figure for `Cc1c(F)cccc1Cc1c(C(=O)N2CCNCC2)c2cccnc2n1-c1ccccc1` [Example 27, [2-(3-Fluoro-2-methyl-benzyl)-1-phenyl-1H-pyrrolo[2,3-b]pyridin-3-yl]-piperazin-1-yl-methanone] is 86 nM; for `Cc1c(F)cccc1Cc1c(C(=O)N2CCNCC2)c2cc(O)cnc2n1-c1ccccc1` [Example 31, [2-(3-Fluoro-2-methyl-benzyl)-5-hydroxy-1-phenyl-1H-pyrrolo[2,3-b]pyridin-3-yl]-piperazin-1-yl-methanone] it is 5.6 nM; for `Cc1ccc(F)c(C)c1Oc1c(C(=O)N2CCNCC2)c2ccncc2n1-c1ccccc1` [Example 37, [2-(3-Fluoro-2,6-dimethyl-phenoxy)-1-phenyl-1H-pyrrolo[2,3-c]pyridin-3-yl]-piperazin-1-yl-methanone] it is 1.7 nM. The figure for `Cc1ccc(F)cc1Oc1c(C(=O)N2CCNCC2)c2ccnc(Cl)c2n1-c1ccccc1` [Example 38, [7-Chloro-2-(5-fluoro-2-methyl-phenoxy)-1-phenyl-1H-pyrrolo[2,3-c]pyridin-3-yl]-piperazin-1-yl-methanone] is 320 nM; for `Cc1c(F)cccc1Cc1nccc2c(C(=O)N3CCNCC3)c(Cc3cccc(F)c3C)n(-c3ccccc3)c12` [Example 40, [2,7-Bis-(3-fluoro-2-methyl-benzyl)-1-phenyl-1H-pyrrolo[2,3-c]pyridin-3-yl]-piperazin-1-yl-methanone] it is 5.1 nM; for `Cc1cccc(C)c1Oc1c(C(=O)N2CCNCC2)c2cnc(O)cc2n1C1CCCCC1` [Example 49, [1-Cyclohexyl-2-(2,6-dimethyl-phenoxy)-6-hydroxy-1H-pyrrolo[3,2-c]pyridin-3-yl]-piperazin-1-yl-methanone] it is 80 nM. Next, `CC(c1ccccc1)c1c(C(=O)N2CCNCC2)c2ncccc2n1-c1ccccc1` (stereo not shown) [Example 50, [1-Phenyl-2-(1-phenyl-ethyl)-1H-pyrrolo[3,2-b]pyridin-3-yl]-piperazin-1-yl-methanone]: 1000 nM; `CCOc1cnc2c(C(=O)N3CCNCC3)c(Oc3c(C)cccc3C)n(-c3ccccc3)c2c1` [Example 54, [2-(2,6-Dimethyl-phenoxy)-6-ethoxy-1-phenyl-1H-pyrrolo[3,2-b]pyridin-3-yl]-piperazin-1-yl-methanone]: 77 nM; `Cc1cccc(C)c1Oc1c(C(=O)N2CCNCC2)c2ncc(OCC(=O)O)cc2n1-c1ccccc1` [Example 57, [2-(2,6-Dimethyl-phenoxy)-1-phenyl-3-(piperazine-1-carbonyl)-1H-pyrrolo[3,2-b]pyridin-6-yloxy]-acetic acid]: 110 nM. `COC(=O)CC1CN(C(=O)c2c(Oc3c(C)cccc3C)n(-c3ccccc3)c3cccnc23)CCN1` (stereo not shown) [Example 58, {4-[2-(2,6-Dimethyl-phenoxy)-1-phenyl-1H-pyrrolo[3,2-b]pyridine-3-carbonyl]-piperazin-2-yl}-acetic acid methyl ester]: the IC50 was determined as 57 nM. Next, `CNC(=O)CC1CN(C(=O)c2c(Oc3c(C)cccc3C)n(-c3ccccc3)c3cccnc23)CCN1` (stereo not shown) [Example 59, 2-{4-[2-(2,6-Dimethyl-phenoxy)-1-phenyl-1H-pyrrolo[3,2-b]pyridine-3-carbonyl]-piperazin-2-yl}-N-methyl-acetamide]: 70 nM; `COC[C@H]1CN(C(=O)c2c(Oc3c(C)cccc3C)n(-c3ccccc3)c3cccnc23)CCN1` [Example 89]: 290 nM; `Cc1cccc(C)c1Oc1c(C(=O)N2CCN[C@@H](CC(C)C)C2)c2ncccc2n1-c1ccccc1` [Example 97]: 7000 nM. In the case of `Cc1cccc(C)c1Oc1c(C(=O)N2CCNCC2Cc2ccccc2)c2ncccc2n1-c1ccccc1` (stereo not shown) [Example 106], the IC50 stood at 420 nM. Take `Cc1c(F)cc(F)cc1Oc1c(C(=O)N2CCNCC2)c2ncccc2n1-c1ccccc1` [Example 111]: the IC50 was determined as 650 nM. The figure for `COc1cc2c(cn1)c(C(=O)N1CCN[C@@H](C)C1)c(Cc1cccc(F)c1C)n2C1CCCCC1` [Example 113] is 320 nM. As to `Cc1c(F)cccc1Cc1c(C(=O)N2CCN[C@@H](CO)C2)c2cnc(O)cc2n1C1CCCCC1` [Example 116], the IC50 was determined as 1100 nM. Next, `Cc1c(F)cccc1Oc1c(C(=O)N2CCNCC2)c2cccnc2n1-c1ccccc1` [Example 129]: 170 nM; `CCCc1ccnc2c1c(C(=O)N1CCNCC1)c(Oc1cc(F)ccc1C)n2-c1ccccc1` [Example 133]: 1850 nM. The figure for `COc1ccc2c(C(=O)N3CCNCC3)c(Oc3c(C)cccc3C)n(-c3ccccc3)c2n1` [Example 134] is 3 nM; for `Cc1ccc(F)cc1Sc1c(C(=O)N2CCN[C@@H](C)C2)c2ncccc2n1-c1ccccc1` [Example 139, [2-(5-Fluoro-2-methyl-phenylsulfanyl)-1-phenyl-1H-pyrrolo[3,2-b]pyridin-3-yl]-((S)-3-methyl-piperazin-1-yl)-methanone] it is 190 nM.
